Source: article PMC12322656, “N‐ to C‐Glycoside Rearrangement of Uridine 5′‐Phosphate in Two Enzymatic Steps for the Production of Pseudouridine 5′‐Phosphate” (Biotechnology and Bioengineering, 2025)
Where a chain is given by its changes, count along the chain named.

Assays:
[1] = target: T1, PpnN (purine/pyrimidine nucleotide 5'-phosphate nucleosidase; EC 3.2.2.10) (Escherichia coli, UniProt P0ADR8); test: initial-rate inhibition, HPLC of uracil release, nonlinear fit; assay type: biochemical; conditions: substrate UMP; 50 mM HEPES pH 7.5, 40 °C; competitive; wild type
T1 construct: subunit 51,794 Da (wild type; RY 51,440 Da); wild type tetramer, RY variant monomer
T1 sequence (P0ADR8 1-454): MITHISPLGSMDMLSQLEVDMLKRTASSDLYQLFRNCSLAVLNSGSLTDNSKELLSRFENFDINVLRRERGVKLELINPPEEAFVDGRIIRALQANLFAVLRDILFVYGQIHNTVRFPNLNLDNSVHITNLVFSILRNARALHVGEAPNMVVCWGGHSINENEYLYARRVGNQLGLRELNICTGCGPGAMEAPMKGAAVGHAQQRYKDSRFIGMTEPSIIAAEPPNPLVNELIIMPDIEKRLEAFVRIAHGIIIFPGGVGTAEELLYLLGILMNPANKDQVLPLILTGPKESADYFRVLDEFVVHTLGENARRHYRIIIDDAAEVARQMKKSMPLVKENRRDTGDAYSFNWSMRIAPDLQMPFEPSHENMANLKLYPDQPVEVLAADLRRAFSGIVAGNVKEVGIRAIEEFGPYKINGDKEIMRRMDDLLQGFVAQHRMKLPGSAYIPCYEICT

[2] = target: T2, PpnN (purine/pyrimidine nucleotide 5'-phosphate nucleosidase; EC 3.2.2.10) (Escherichia coli, UniProt P0ADR8, R341A/Y347A); test: as above; assay type: biochemical; conditions: substrate UMP; 50 mM HEPES pH 7.5, 40 °C; competitive; RY variant, monomer
T2 construct: subunit 51,794 Da (wild type; RY 51,440 Da); wild type tetramer, RY variant monomer
T2 sequence (P0ADR8 1-454 R341A/Y347A): T1 sequence (P0ADR8 1-454) with R341A, Y347A

## O=P(O)(O)OC[C@H]1OC(O)[C@H](O)[C@@H]1O (stereo partly drawn) [D-ribose 5-phosphate]
[1]
  Ki: 100 µM
[2]
  Ki: 1.2 ± 0.1 mM
